The results in this text go back to patent US20230031406A1, “COMPOUNDS AND COMPOSITIONS FOR TREATING CONDITIONS ASSOCIATED WITH NLRP ACTIVITY” (Novartis AG, priority 2018, published 2023).

The subject of this test is PMA-differentiated THP-1 cells. The experiment in a line: IL-1β production in PMA-differentiated THP-1 cells stimulated with gramicidin (hTHP-1 assay containing 2% fetal bovine serum; Procedures 1 and 2). The format is cell-based, human. To be noted: 2% fetal bovine serum. On the procedure:
The following protocol is suitable for testing the activity of the compounds disclosed herein. Procedure 1: IL-1β Production in PMA-Differentiated THP-1 Cells Stimulated with Gramicidin.
THP-1 cells were purchased from the American Type Culture Collection and sub-cultured according to instructions from the supplier. Cells were cultured in complete RPMI 1640 (containing 10% heat inactivated FBS, penicillin (100 units/ml) and streptomycin (100 μg/ml)), and maintained in log phase prior to experimental setup. Prior to the experiment, compounds were dissolved in dimethyl sulfoxide (DMSO) to generate a 30 mM stock. The compound stock was first pre-diluted in DMSO to 3, 0.34, 0.042 and 0.0083 mM intermediate concentrations and subsequently spotted using Echo550 liquid handler into an empty 384-well assay plate to achieve desired final concentration (e.g. 100, 33, 11, 3.7, 1.2, 0.41, 0.14, 0.046, 0.015, 0.0051, 0.0017 μM). DMSO was backfilled in the plate to achieve a final DMSO assay concentration of 0.37%. The plate was then sealed and stored at room temperature until required.
THP-1 cells were treated with PMA (Phorbol 12-myristate 13-acetate) (20 ng/ml) for 16-18 hours. On the day of the experiment the media was removed and adherent cells were detached with trypsin for 5 minutes. Cells were then harvested, washed with complete RPMI 1640, spun down, and resuspended in RPMI 1640 (containing 2% heat inactivated FBS, penicillin (100 units/ml) and streptomycin (100 μg/ml). The cells were plated in the 384-well assay plate containing the spotted compounds at a density of 50,000 cells/well (final assay volume 50 μl). Cells were incubated with compounds for 1 hour and then stimulated with gramicidin (5 μM) (Enzo) for 2 hours. Plates were then centrifuged at 340 g for 5 min. Cell free supernatant (40 μL) was collected using a 96—CHannel PlateMaster (Gilson) and the production of IL-1β was evaluated by HTRF (cisbio). The plates were incubated for 18 h at 4° C. and read using the preset HTRF program (donor emission at 620 nm, acceptor emission at 668 nm) of the SpectraMax i3x spectrophotometer (Molecular Devices, software SoftMax 6). A vehicle only control and a dose titration of CRID3 (100-0.0017 μM) were run concurrently with each experiment.
Procedure 2: IL-1β Production in PMA-Differentiated THP-1 Cells Stimulated with Gramicidin.
THP-1 cells were purchased from the American Type Culture Collection and sub-cultured according to instructions from the supplier. Prior to experiments, cells were cultured in complete RPMI 1640 (containing 10% heat inactivated FBS, penicillin (100 units/ml) and streptomycin (100 μg/ml)), and maintained in log phase prior to experimental setup. Prior to the experiment THP-1 were treated with PMA (Phorbol 12-myristate 13-acetate) (20 ng/ml) for 16-18 hours. Compounds were dissolved in dimethyl sulfoxide (DMSO) to generate a 30mM stock. On the day of the experiment the media was removed and adherent cells were detached with trypsin for 5 minutes. Cells were then harvested, washed with complete RPMI 1640, spun down, resuspended in RPMI 1640 (containing 2% heat inactivated FBS, penicillin (100 units/ml) and streptomycin (100 μg/ml). The cells were plated in a 384-well plate at a density of 50,000 cells/well (final assay volume […]). Compounds were first dissolved in assay medium to obtain a 5× top concentration of 500 μM. 10 step dilutions (1:3) were then undertaken in assay medium containing 1.67% DMSO. 5× compound solutions were added to the culture medium to achieve desired final concentration (e.g. 100, 33, 11, 3.7, 1.2, 0.41, 0.14, 0.046, 0.015, 0.0051, 0.0017 μM). Final DMSO concentration was at 0.37%. Cells were incubated with compounds for 1 hour and then stimulated with gramicidin (5 μM) (Enzo) for 2 hours. Plates were then centrifuged at 340 g for 5 min. Cell free supernatant (40 μL) was collected using a 96—CHannel PlateMaster (Gilson) and the production of IL-1β was evaluated by HTRF (cisbio). […]

[1] abbreviates: Homo sapiens, THP-1, Table B2, numeric bounds, read-out: hTHP-1 IC50.
[2] abbreviates: Homo sapiens, THP-1, Table B3, hTHP-1 assay, class symbols, read-out: IC50.
Where [3] appears, read: Table B1, class symbols, read-out: Average IC50 of compounds in hTHP-1 assay: hTHP-1 IC50.
The mark [4] stands for this setting: Homo sapiens, THP-1, Table B2, class symbols, read-out: hTHP-1 IC50.
The mark [5] stands for this setting: Table B2, class symbols, read-out: hTHP-1 IC50.

Where two headings read alike, the source gives them in different places.

In general, IC50 refers to the concentration that gives 50% inhibition. Consider `CC1CCc2c1nc1c(c2NC(=O)N=S(N)(=O)c2ncc(C(C)(C)O)s2)CCC1` (single isomer, unassigned) [Compound 140bb, (S,R) or (S,S)-5-(2-hydroxypropan-2-yl)-N′-((3-methyl-1,2,3,5,6,7-hexa-hydrodicyclo-penta[b,e]pyridin-8-yl)carbamoyl)thiazole-2-sulfonimidamide], for which the IC50 (Homo sapiens, THP-1, Table B1, numeric bounds, read-out: Average IC50 of compounds in hTHP-1 assay: hTHP-1 IC50) was above 30000 nM.
On to `Cc1c(C(F)(F)F)nc2c(c1NC(=O)N=S(N)(=O)c1cnn(C(F)F)c1)CCC2` (single isomer, unassigned) [Compound 617b, (S) or (R)-1-(Difluoromethyl)-N′-((3-methyl-2-(trifluoromethyl)-6,7-dihydro-5H-cyclopenta[b]pyridin-4-yl)carbamoyl)-1H-pyrazole-4-sulfonimidamide], for which, under setting [1], the IC50 is above 30000 nM.
As to `CC1(C)CCc2c1nc1c(c2NC(=O)N=S(N)(=O)c2cnc(C(C)(CO)CO)s2)CCC1` (centres unmarked) [Example 604, 2-(1,3-Dihydroxy-2-methylpropan-2-yl)-N′-((3,3-dimethyl-1,2,3,5,6,7-hexahydrodicyclopenta[b,e]pyridin-8-yl)carbamoyl)thiazole-5-sulfonimidamide], the IC50 under setting [2] lay within 40 to 200 nM.
On to `C[C@@H]1CCc2c1nc1c(c2NC(=O)N=S(N)(=O)c2nn(-c3ccccc3)cc2F)CCC1` (single isomer, unassigned) [Example 792, (S) or (R)-4-fluoro-N′-(((R)-3-methyl-1,2,3,5,6,7-hexahydrodicyclopenta[b,e]pyridm-8-yl)carbamoyl)-1-phenyl-1H-pyrazole-3-sulfonimidamide], for which, for the setting “Homo sapiens, THP-1, Table B4, numeric bounds, read-out: hTHP-1 IC50”, the IC50 was above 30000 nM.
Consider `CC(C)(O)c1cc(F)c(S(N)(=O)=NC(=O)Nc2cc(CC(F)(F)F)nc3c2CCC3)s1` (single isomer, unassigned) [Example 689, (R) or (S)-3-Fluoro-5-(2-hydroxypropan-2-yl)-N′-((2-(2,2,2-trifluoroethyl)-6,7-dihydro-5H-cyclopenta[b]pyridin-4-yl)carbamoyl)thiophene-2-sulfonimidamide], for which, under setting [2], the IC50 was 1000 to 5000 nM.
As for `CC(C)c1ncc(F)c(C(C)C)c1NC(=O)N=S(N)(=O)c1ncc(C(C)(C)O)s1` [Compound 165a, (R)- and (S)-N′-((5-fluoro-2,4-diisopropylpyridin-3-yl)carbamoyl)-5-(2-hydroxypropan-2-yl)thiazole-2-sulfonimidamide], the IC50 under setting [3] lay in the range of 200 to 1000 nM.
As for `CCc1cc(NC(=O)N=S(N)(=O)c2cnc(C(C)(C)O)s2)c2c(n1)CCC2` (single isomer, unassigned) [Compound 137b, (S) or (R)-N′-((2-ethyl-6,7-dihydro-5H-cyclopenta[b]pyridin-4-yl)carbamoyl)-2-(2-hydroxypropan-2-yl)thiazole-5-sulfonimidamide], the IC50 (Table B1, numeric bounds, read-out: Average IC50 of compounds in hTHP-1 assay: hTHP-1 IC50) is above 30000 nM.
As to `Cc1nc2c(c(NC(=O)N=S(N)(=O)c3cc(C(C)(C)O)cs3)c1C(C)C)CCC2` (centres unmarked) [Compound 622, 4-(2-Hydroxypropan-2-yl)-N′-((3-isopropyl-2-methyl-6,7-dihydro-5H-cyclopenta[b]pyridin-4-yl)carbamoyl)thiophene-2-sulfonimidamide], the IC50 under setting [4] was 5000 to 30000 nM.
Turning to `CC(C)c1nc(CO)c(S(N)(=O)=NC(=O)Nc2c3c(nc4c2CCC4(C)C)CCC3)s1` (single isomer, unassigned) [Compound 680b, (R) or (S)-N′-((3,3-dimethyl-1,2,3,5,6,7-hexahydrodicyclopenta [b,e]pyridin-8-yl)carbamoyl)-4-(hydroxymethyl)-2-isopropylthiazole-5-sulfonimidamide], under setting [5], the IC50 is 1000 to 5000 nM.
For the compound `CC1CCc2c1nc1c(c2NC(=O)N=S(N)(=O)c2cn(C(C)C)cn2)CCC1` (single isomer, unassigned) [Compound 660a, (R, S) or (S, S) or (S, R) or (R, R)-1-Isopropyl-N′-((3-metliyl-1,2,3,5,6,7-hexahydrodicyclopenta [b,e]pyridin-8-yl)carbamoyl)-1H-imidazole-4-sulfonimidamide], for the setting “Table B2, numeric bounds, read-out: hTHP-1 IC50”, the IC50 is above 30000 nM.
With `CC(C)(O)c1ccnc(S(N)(=O)=NC(=O)Nc2c3c(nc4c2CCC4(C)C)CCC3)c1` (single isomer, unassigned) [Compound 620a, (S) or (R)-N′-((3,3-dimethyl-1,2,3,5,6,7-hexahydrodicyclopenta [b,e]pyridin-8-yl)carbamoyl)-4-(2-hydroxypropan-2-yl)pyridine-2-sulfonimidamide], the IC50 under setting [1] was above 30000 nM.
As to `CC(C)n1ccc(S(N)(=O)=NC(=O)Nc2c3c(nc4c2CCC4(C)C)CCC3)n1` (single isomer, unassigned) [Compound 126a, (R) or (S)-N′-((3,3-dimethyl-1,2,3,5,6,7-hexahydro-dicyclopenta[b,e]pyridin-8-yl)carbamoyl)-1-isopropyl-1H-pyrazole-3-sulfonimidamide], the IC50 under setting [3] was 40 to 200 nM.
As to `C[C@@H]1CCc2c1nc1c(c2NC(=O)N=S(N)(=O)c2ccn(C)n2)CCC1` (single isomer, unassigned) [Compound 639a, (S) or (R)-1-Methyl-N′-(((R)-3-methyl-1,2,3,5,6,7-hexahydrodicyclopenta [b,e]pyridin-8-yl)carbamoyl)-1H-pyrazole-3-sulfonimidamide], under setting [1], the IC50 is above 30000 nM.
For `CC(C)c1nc(CO)c(S(N)(=O)=NC(=O)Nc2c3c(nc4c2CCC4(C)C)CCC3)s1` (single isomer, unassigned) [Compound 680a, (S) or (R)-N′-((3,3-dimethyl-1,2,3,5,6,7-hexahydrodicyclopenta [b,e]pyridin-8-yl)carbamoyl)-4-(hydroxymethyl)-2-isopropylthiazole-5-sulfonimidamide], the IC50 under setting [5] was in the range of 5000 to 30000 nM.
Regarding `C[C@@H]1CCc2c1nc1c(c2NC(=O)N=S(N)(=O)c2ccn(C(C)(F)F)n2)CCC1` (single isomer, unassigned) [Compound 723b, (R) or (S)-1-(1,1-Difluoroethyl)-N′-(((R)-3-methyl-1,2,3,5,6,7-hexahydrodicyclopenta [b,e]pyridin-8-yl)carbamoyl)-1H-pyrazole-3-sulfonimidamide], under setting [5], the IC50 was 40 to 200 nM.
Consider `CC(C)(O)c1csc(S(N)(=O)=NC(=O)Nc2c3c(nc(C4CC4)c2C2CC2)CCC3)c1` (centres unmarked) [Compound 670, N′-((2,3-dicyclopropyl-6,7-dihydro-5H-cyclopenta[b]pyridin-4-yl)carbamoyl)-4-(2-hydroxypropan-2-yl)thiophene-2-sulfonimidamide], for which the IC50 under setting [4] is 200 to 1000 nM.
`NS(=O)(=NC(=O)Nc1c2c(nc(C(F)(F)F)c1C1CC1)CCC2)c1nn(C(F)F)cc1F` (single isomer, unassigned) [Example 775, (R) or (S)-N′-((3-cyclopropyl-2-(trifluoromethyl)-6,7-dihydro-5H-cyclopenta[b]pyridin-4-yl)carbamoyl)-1-(difluoromethyl)-4-fluoro-1H-pyrazole-3-sulfonimidamide]: the IC50 (Table B4, class symbols, read-out: hTHP-1 IC50) lay within 40 to 200 nM.
